Measured values: ChEMBL document CHEMBL1201862, “PubChem BioAssay data set” (2004)
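Grown in 96-well plates, cells were treated for 48 hours with each compound at five concentrations. Insufficient inhibition: endpoint recorded as highest concentration tested. At the GI50, growth is halved.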 Activity calls are given as the source filed them. No stated cut-off is given here; in the data, active = GI50 up to about 1.1 µM and inactive = higher.

Experiments:
Assay in all cases: inhibition of tumour cell growth, NCI panel, 48 h
[1] = tested on: SN12C
[2] = tested on: HL-60
[3] = tested on: HCT-116
[4] = tested on: IGROV-1
[5] = tested on: OVCAR-5
[6] = tested on: NCI-H460
[7] = tested on: EKVX
[8] = tested on: MCF7
[9] = tested on: SR
[10] = tested on: K562
[11] = tested on: A549
[12] = tested on: MOLT-4
[13] = tested on: A498
[14] = tested on: HCC 2998
[15] = tested on: MDA-N
[16] = tested on: KM12
[17] = tested on: SK-OV-3
[18] = tested on: DU-145
[19] = tested on: SF-295
[20] = tested on: OVCAR-3
[21] = tested on: NCI/ADR-RES
[22] = tested on: U-251
[23] = tested on: NCI-H23
[24] = tested on: NCI-H226
[25] = tested on: SK-MEL-28
[26] = tested on: SK-MEL-5
[27] = tested on: MDA-MB-231
[28] = tested on: OVCAR-8
[29] = tested on: MDA-MB-435
[30] = tested on: BT-549
[31] = tested on: CCRF-CEM
[32] = tested on: HT-29
[33] = tested on: Hs-578T
[34] = tested on: HOP-62
[35] = tested on: SK-MEL-2
[36] = tested on: NCI-H522
[37] = tested on: ACHN
[38] = tested on: UO-31
[39] = tested on: SF-539
[40] = tested on: SNB-19
[41] = tested on: M14
[42] = tested on: CAKI-1
[43] = tested on: Malme-3M
[44] = tested on: COLO 205
[45] = tested on: UACC-62
[46] = tested on: SF-268
[47] = tested on: 786-0
[48] = tested on: RPMI-8226
[49] = tested on: T47D
[50] = tested on: OVCAR-4
[51] = tested on: PC-3
[52] = tested on: RXF 393
[53] = tested on: HOP-92
[54] = tested on: HCT-15
[55] = tested on: UACC-257
[56] = tested on: TK-10

Measured: GI50

O=c1[nH]cc(/N=C/c2cc(Cl)cc(Cl)c2O)c(=O)[nH]1
inactive: [1] 35.2 µM | [2] 13.6 µM | [3] 20.6 µM | [4] 17 µM | [5] 88.1 µM | [6] 39.9 µM | [7] 30.7 µM | [8] 25.8 µM | [9] 14.3 µM | [10] 27.8 µM | [11] > 100 µM | [12] 21.9 µM | [13] > 100 µM | [14] 33.3 µM | [15] 29.2 µM | [16] 24.2 µM | [17] 24.7 µM | [18] 23 µM | [19] 47.3 µM | [20] 17.7 µM | [21] 21.8 µM | [22] 32.7 µM | [23] 24.6 µM | [24] 23.4 µM | [25] 22.9 µM | [26] 19.1 µM | [27] 48.3 µM | [28] 43.1 µM | [29] 23.5 µM | [30] 45.1 µM | [31] 20 µM | [32] 26.5 µM | [33] 21.4 µM | [34] 26.1 µM | [35] 19.3 µM | [36] 21.5 µM | [37] 36.3 µM | [38] 29.5 µM | [39] 24.1 µM | [40] 32.8 µM | [41] 21 µM | [42] 24.6 µM | [43] 20.8 µM | [44] 24.8 µM | [45] 26.5 µM | [46] 14.2 µM | [47] 20.7 µM | [48] 22.1 µM | [49] 21.7 µM | [50] 21.3 µM | [51] 27.8 µM | [52] 26.2 µM | [53] 27.4 µM | [55] 27.7 µM | [56] > 100 µM
36.4 µM: [54]
